Test results reported in US20150105252A1, “SUBSTITUTED PYRAZOLES AS HERBICIDES” (E I DU PONT DE NEMOURS AND COMPANY, priority 2013, published 2015).

How the values were obtained:
[1] = test system: speedwell; assay: Test D postemergence; type: in vivo, Veronica persica; conditions: scale 0 to 100
Description: (§1) Seeds of plant species selected from bluegrass (annual bluegrass, Poa annua), blackgrass (Alopecurus myosuroides), canarygrass (littleseed canarygrass, Phalaris minor), chickweed (common chickweed, Stellaria media), galium (catchweed bedstraw, Galium aparine), bromegrass, downy (downy bromegrass, Bromus tectorum), field poppy (Papaver rhoeas), field violet (Viola arvensis), foxtail, green (green foxtail, Setaria viridis), deadnettle (henbit deadnettle, Lamium amplexicaule), ryegrass, Italian (Italian ryegrass, Lolium multiflorum), kochia (Kochia scoparia), lambsquarters (Chenopodium album), oilseed rape (Brassica napus), pigweed (redroot pigweed, Amaranthus retroflexus), chamomile (scentless chamomile, Matricaria inodora), speedwell (bird's-eye speedwell, Veronica persica), barley, spring (spring barley, Hordeum vulgare), wheat, spring (spring wheat, Triticum aestivum), buckwheat, wild (wild buckwheat, Polygonum convolvulus), mustard, wild (wild mustard, Sinapis arvensis), oat, wild (wild oat, Avena fatua), radish, wild (wild radish, Raphanus raphanistrum), windgrass (Apera spica-venti), Russian thistle (Salsola kali), barley, winter (winter barley, Hordeum vulgare), and wheat, winter (winter wheat, Triticum aestivum) were planted into a silt loam soil and treated preemergence with test chemicals formulated in a non-phytotoxic solvent mixture which included a surfactant.
(§2) At the same time, these species were planted in pots containing Redi-Earth® planting medium (Scotts Company, 14111 Scottslawn Road, Marysville, Ohio 43041) comprising spaghnum peat moss, vermiculite, wetting agent and starter nutrients and treated with postemergence applications of the test chemicals formulated in the same manner. Plants ranged in height from 2 to 18 cm (1- to 4-leaf stage). Treated plants and controls were maintained in a controlled growth environment for 14 to 21 days after which time all species were compared to controls and visually evaluated. Plant response ratings, summarized in Table D, are based on a scale of 0 to 100 where 0 is no effect and 100 is complete control. A dash (-) response means no test result.

[2] = test system: giant foxtail; assay: Test F preemergence; type: in vivo, Setaria faberii
Description: (§3) Seeds of plant species selected from corn (Zea mays), soybean (Glycine max), velvetleaf (Abutilon theophrasti), lambsquarters (Chenopodium album), wild poinsettia (Euphorbia heterophylla), pigweed, palmer (palmer pigweed, Amaranthus palmeri), common waterhemp (Amaranthus rudis), surinam grass (Brachiaria decumbens), large crabgrass (Digitaria sanguinalis), crabgrass, Brazil (Brazilian crabgrass, Digitaria horizontalis), fall panicum (Panicum dichotomiflorum), giant foxtail (Setaria faberii), green foxtail (Setaria viridis), goosegrass (Eleusine indica), johnsongrass (Sorghum halepense), common ragweed (Ambrosia elation), barnyardgrass (Echinochloa crus-galli), southern sandbur (Cenchrus echinatus), arrowleaf sida (Sida rhombifolia), Italian ryegrass (Lolium multiflorum), dayflower, VA (Virginia (VA) dayflower, Commelina virginica), field bindweed (Convolvulus arvensis), cocklebur (common cocklebur, Xanthium strumarium), morningglory (Ipomoea coccinea), nightshade (eastern black nightshade, Solanum ptycanthum), kochia (Kochia scoparia), yellow nutsedge (Cyperus esculentus), and hairy beggarticks (Bidens pilosa), were planted into a silt loam soil and treated preemergence with test chemicals formulated in a non-phytotoxic solvent mixture which included a surfactant.
(§4) At the same time, plants from these crop and weed species and also horseweed (Canada horseweed, Conyza canadensis), smartweed (ladysthumb smartweed, Polygonum persicaria), waterhemp_RES1, (ALS & Triazine resistant common waterhemp, Amaranthus rudis), and waterhemp_RES2, (ALS & HPPD resistant common waterhemp, Amaranthus rudis) were treated with postemergence applications of test chemicals formulated in the same manner. Plants ranged in height from 2 to 18 cm for postemergence treatments (1- to 4-leaf stage). Treated plants and controls were maintained in a greenhouse for 14 to 21 days, after which time all species were compared to controls and visually evaluated. Plant response ratings, summarized in Table F, are based on a scale of 0 to 100 where 0 is no effect and 100 is complete control. A dash (-) response means no test result.

[3] = test system: windgrass; assay: Test D postemergence; type: in vivo, Apera spica-venti; conditions: scale 0 to 100
Summary of the method: (§5)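 Scores of 0 (no effect) to 100 (complete control) come from visual comparison with untreated plants 14–21 days after spraying. Applications were made pre-emergence to silt loam or post-emergence to plants 2–18 cm tall.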

[4] = test system: pigweed; assay: Test D postemergence; type: in vivo, Amaranthus retroflexus; conditions: scale 0 to 100
Description: as §1, §2

[5] = test system: pigweed; assay: Test D preemergence; type: in vivo, Amaranthus retroflexus; conditions: scale 0 to 100
Description: as §1, §2

[6] = test system: large crabgrass; assay: Test F preemergence; type: in vivo, Digitaria sanguinalis
Description: as §3, §4

[7] = test system: blackgrass; assay: Test D preemergence; type: in vivo, Alopecurus myosuroides; conditions: scale 0 to 100
Description: as §1, §2

[8] = test system: velvetleaf; assay: Test F preemergence; type: in vivo, Abutilon theophrasti
Description: as §3, §4

[9] = test system: field violet; assay: Test D postemergence; type: in vivo, Viola arvensis; conditions: scale 0 to 100
Summary of the method: as §5

[10] = test system: ryegrass, Italian; assay: Test D postemergence; type: in vivo, Lolium multiflorum; conditions: scale 0 to 100
Description: as §1, §2

[11] = test system: canarygrass; assay: Test D preemergence; type: in vivo, Phalaris minor; conditions: scale 0 to 100
Summary of the method: as §5

[12] = test system: nightshade; assay: Test F preemergence; type: in vivo, Solanum ptycanthum
Description: as §3, §4

[13] = test system: pigweed, palmer; assay: Test F preemergence; type: in vivo, Amaranthus palmeri
Description: as §3, §4

[14] = test system: hairy beggarticks; assay: Test F preemergence; type: in vivo, Bidens pilosa
Summary of the method: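 Seeds were sown in silt loam and sprayed preemergence with compound in a non-phytotoxic solvent mixture containing surfactant. Postemergence sprays went onto plants 2 to 18 cm tall (1- to 4-leaf stage). After 14 to 21 days in a greenhouse, injury was rated visually against untreated controls, 0 (no effect) to 100 (complete control).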

[15] = Preemergence, 31 g ai/ha, scale 0 to 100
[16] = Preemergence, 62 g ai/ha, scale 0 to 100
[17] = Preemergence, 125 g ai/ha, scale 0 to 100
[18] = preemergence, 8 g ai/ha, scale 0 to 100, 100 is complete control
[19] = preemergence, 16 g ai/ha, scale 0 to 100, 100 is complete control

CCc1cc(C(=O)NCC(F)(F)F)nn1Cc1ccnc(C(F)(F)F)c1 [Compound 78, 5-ethyl-N-(2,2,2-trifluoroethyl)-1-[[(2-trifluoromethyl)-4-pyridinyl]methyl]-1H-pyrazole-3-carboxamide]
Speedwell plant response rating ([1]; Postemergence, 31 g ai/ha): 45 | Speedwell plant response rating ([1]; Postemergence, 125 g ai/ha): 80 | Speedwell plant response rating ([1]; Postemergence, 250 g ai/ha): 90 | Speedwell plant response rating ([1]; postemergence, 62 g ai/ha): 60 | Plant response rating, Giant Foxtail [2, 15]: 100 | Plant response rating, Giant Foxtail [2, 16]: 100 | Plant response rating, Giant Foxtail [2, 17]: 100 | Plant response rating, Giant Foxtail [2, 18]: 5 | Plant response rating, Giant Foxtail [2, 19]: 50 | Windgrass plant response rating ([3]; Postemergence, 31 g ai/ha): 10 | Windgrass plant response rating ([3]; Postemergence, 125 g ai/ha): 35 | Windgrass plant response rating ([3]; Postemergence, 250 g ai/ha): 60 | Windgrass plant response rating ([3]; postemergence, 62 g ai/ha): 20 | Pigweed plant response rating ([4]; Postemergence, 31 g ai/ha): 70 | Pigweed plant response rating ([4]; Postemergence, 125 g ai/ha): 80 | Pigweed plant response rating ([4]; Postemergence, 250 g ai/ha): 85 | Pigweed plant response rating ([4]; postemergence, 62 g ai/ha): 75 | Plant response rating, Pigweed ([5]; 31 g ai/ha): 100 | Plant response rating, Pigweed ([5]; 62 g ai/ha): 100 | Plant response rating, Pigweed ([5]; 125 g ai/ha): 100 | Plant response rating, Pigweed ([5]; 250 g ai/ha): 100 | Plant response rating, Large Crabgrass [6, 15]: 100 | Plant response rating, Large Crabgrass [6, 16]: 100 | Plant response rating, Large Crabgrass [6, 17]: 100 | Plant response rating, Large Crabgrass [6, 18]: 75 | Plant response rating, Large Crabgrass [6, 19]: 98 | Plant response rating, Blackgrass ([7]; 31 g ai/ha): 35 | Plant response rating, Blackgrass ([7]; 62 g ai/ha): 70 | Plant response rating, Blackgrass ([7]; 125 g ai/ha): 80 | Plant response rating, Blackgrass ([7]; 250 g ai/ha): 100 | Plant response rating, Velvetleaf [8, 15]: 10 | Plant response rating, Velvetleaf [8, 16]: 75 | Plant response rating, Velvetleaf [8, 17]: 95 | Plant response rating, Velvetleaf [8, 18]: 5 | Field Violet plant response rating ([9]; Postemergence, 31 g ai/ha): 30 | Field Violet plant response rating ([9]; Postemergence, 125 g ai/ha): 60 | Field Violet plant response rating ([9]; Postemergence, 250 g ai/ha): 65 | Field Violet plant response rating ([9]; postemergence, 62 g ai/ha): 40 | Ryegrass, Italian plant response rating ([10]; Postemergence, 31 g ai/ha): 5 | Ryegrass, Italian plant response rating ([10]; Postemergence, 125 g ai/ha): 10 | Ryegrass, Italian plant response rating ([10]; Postemergence, 250 g ai/ha): 45 | Ryegrass, Italian plant response rating ([10]; postemergence, 62 g ai/ha): 5 | Plant response rating, Canarygrass ([11]; 31 g ai/ha): 15 | Plant response rating, Canarygrass ([11]; 62 g ai/ha): 30 | Plant response rating, Canarygrass ([11]; 125 g ai/ha): 90 | Plant response rating, Canarygrass ([11]; 250 g ai/ha): 100 | Plant response rating, Nightshade [12, 15]: 95 | Plant response rating, Nightshade [12, 16]: 98 | Plant response rating, Nightshade [12, 17]: 98 | Plant response rating, Nightshade [12, 18]: 0 | Plant response rating, Nightshade [12, 19]: 60 | Plant response rating, Pigweed, Palmer [13, 15]: 35 | Plant response rating, Pigweed, Palmer [13, 16]: 100 | Plant response rating, Pigweed, Palmer [13, 17]: 100 | Plant response rating, Pigweed, Palmer [13, 18]: 20 | Plant response rating, Pigweed, Palmer [13, 19]: 40 | Plant response rating, Hairy Beggarticks [14, 15]: 25 | Plant response rating, Hairy Beggarticks [14, 16]: 35 | Plant response rating, Hairy Beggarticks [14, 17]: 80 | Plant response rating, Hairy Beggarticks [14, 18]: 0 | Plant response rating, Hairy Beggarticks [14, 19]: 20

CCCc1cc(C(=O)NCC(F)(F)F)nn1Cc1ccnc(C(F)(F)F)c1 [Compound 105]
Speedwell plant response rating ([1]; Postemergence, 31 g ai/ha): 60 | Speedwell plant response rating ([1]; Postemergence, 125 g ai/ha): 70 | Speedwell plant response rating ([1]; Postemergence, 250 g ai/ha): 95 | Speedwell plant response rating ([1]; postemergence, 62 g ai/ha): 80 | Plant response rating, Giant Foxtail [2, 15]: 100 | Plant response rating, Giant Foxtail [2, 16]: 100 | Plant response rating, Giant Foxtail [2, 17]: 100 | Plant response rating, Giant Foxtail [2, 18]: 10 | Plant response rating, Giant Foxtail [2, 19]: 65 | Windgrass plant response rating ([3]; Postemergence, 31 g ai/ha): 15 | Windgrass plant response rating ([3]; Postemergence, 125 g ai/ha): 40 | Windgrass plant response rating ([3]; Postemergence, 250 g ai/ha): 70 | Windgrass plant response rating ([3]; postemergence, 62 g ai/ha): 25 | Pigweed plant response rating ([4]; Postemergence, 31 g ai/ha): 85 | Pigweed plant response rating ([4]; Postemergence, 125 g ai/ha): 80 | Pigweed plant response rating ([4]; Postemergence, 250 g ai/ha): 85 | Pigweed plant response rating ([4]; postemergence, 62 g ai/ha): 75 | Plant response rating, Pigweed ([5]; 31 g ai/ha): 100 | Plant response rating, Pigweed ([5]; 62 g ai/ha): 100 | Plant response rating, Pigweed ([5]; 125 g ai/ha): 100 | Plant response rating, Pigweed ([5]; 250 g ai/ha): 100 | Plant response rating, Large Crabgrass [6, 15]: 98 | Plant response rating, Large Crabgrass [6, 16]: 100 | Plant response rating, Large Crabgrass [6, 17]: 100 | Plant response rating, Large Crabgrass [6, 18]: 65 | Plant response rating, Large Crabgrass [6, 19]: 70 | Plant response rating, Blackgrass ([7]; 31 g ai/ha): 25 | Plant response rating, Blackgrass ([7]; 62 g ai/ha): 80 | Plant response rating, Blackgrass ([7]; 125 g ai/ha): 100 | Plant response rating, Blackgrass ([7]; 250 g ai/ha): 100 | Plant response rating, Velvetleaf [8, 15]: 0 | Plant response rating, Velvetleaf [8, 16]: 20 | Plant response rating, Velvetleaf [8, 17]: 40 | Plant response rating, Velvetleaf [8, 18]: 0 | Plant response rating, Velvetleaf [8, 19]: 0 | Field Violet plant response rating ([9]; Postemergence, 31 g ai/ha): 40 | Field Violet plant response rating ([9]; Postemergence, 125 g ai/ha): 90 | Field Violet plant response rating ([9]; Postemergence, 250 g ai/ha): 100 | Field Violet plant response rating ([9]; postemergence, 62 g ai/ha): 75 | Ryegrass, Italian plant response rating ([10]; Postemergence, 31 g ai/ha): 5 | Ryegrass, Italian plant response rating ([10]; Postemergence, 125 g ai/ha): 40 | Ryegrass, Italian plant response rating ([10]; Postemergence, 250 g ai/ha): 65 | Ryegrass, Italian plant response rating ([10]; postemergence, 62 g ai/ha): 5 | Plant response rating, Canarygrass ([11]; 31 g ai/ha): 15 | Plant response rating, Canarygrass ([11]; 62 g ai/ha): 60 | Plant response rating, Canarygrass ([11]; 125 g ai/ha): 100 | Plant response rating, Canarygrass ([11]; 250 g ai/ha): 100 | Plant response rating, Nightshade [12, 15]: 70 | Plant response rating, Nightshade [12, 16]: 100 | Plant response rating, Nightshade [12, 17]: 100 | Plant response rating, Nightshade [12, 18]: 0 | Plant response rating, Nightshade [12, 19]: 65 | Plant response rating, Pigweed, Palmer [13, 16]: 50 | Plant response rating, Pigweed, Palmer [13, 17]: 80 | Plant response rating, Pigweed, Palmer [13, 18]: 0 | Plant response rating, Pigweed, Palmer [13, 19]: 0 | Plant response rating, Hairy Beggarticks [14, 15]: 0 | Plant response rating, Hairy Beggarticks [14, 16]: 20 | Plant response rating, Hairy Beggarticks [14, 17]: 40 | Plant response rating, Hairy Beggarticks [14, 18]: 0 | Plant response rating, Hairy Beggarticks [14, 19]: 0
